Structures can show the parent of a compound that is named as a salt.
How the values were obtained:
[1] = tested on: up-regulation of ICAM-1 (CD54) by IFNγ in U937 human monocytic cells; assay: U937 IFNγ ICAM1 FACS Assay; format: cell-based; details: Homo sapiens, U-937, U937 cells stimulated with IFNγ, ICAM-1 expression by FACS; read-out: IC50, Example 44
In short: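 U937 cells in 10% FCS RPMI were preincubated 30 min at 37 °C with an 8-point, 3-fold compound dilution series in duplicate, then stimulated with IFNγ for 18–24 h. Surface ICAM-1 was stained with APC anti-ICAM-1 and read by flow cytometry as geometric mean on live-gated cells. EC50 was derived.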

[2] = tested on: IL-4 stimulated expression of CD23 in human Ramos B cells (JAK-1 and JAK-3); assay: Assay for Ramos B-Cell Line Stimulated with IL-4 (CD23 upregulation, FACS); format: cell-based; details: Homo sapiens, Ramos, Ramos B cells stimulated with IL-4, CD23 expression by FACS; read-out: IC50, Example 41
In short: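 Steps: Ramos B cells are suspended in RPMI with 5% serum, exposed to compound for 1 h at 37 °C, stimulated with IL-4 (final 50 units/mL) for 20-24 h, stained for CD23 and analysed by flow cytometry. IC50 is calculated.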

| IC50 [1] [nM] | IC50 [2] [nM] | Compound |
| --- | --- | --- |
| 504 | 97.7 | NS(=O)(=O)c1cccc(Nc2ncc(F)c(Nc3ccc(-c4cnco4)cc3)n2)c1 [IV-5, N2-(3-Aminosulfonylphenyl)-5-fluoro-N4-[4-(1,3-oxazol-5-yl)phenyl]-2,4-pyrimidinediamine] |
| 735 | 107 | Cc1ccc(Nc2ncc(F)c(Nc3ccc4sccc4c3)n2)cc1S(N)(=O)=O [VII-57, N2-(3-Aminosulfonyl-4-methylphenyl)-N4-(benzothiophen-5-yl)-5-fluoro-2,4-pyrimidinediamine] |
| 821 | 58.8 | N#CCN1C(=O)COc2ccc(Nc3nc(Nc4cccc(S(N)(=O)=O)c4)ncc3F)cc21 [Compound V-7, N2-(3-Aminosulphonylphenyl)-5-fluoro-N4-(3-oxo-4-cyanomethyl-benz[1,4]oxazin-6-yl]-2,4-pyrimidinediamine] |
| 1090 | 57.4 | Cc1ccc(Nc2ncc(F)c(Nc3ccc4[nH]cc(CC#N)c4c3)n2)cc1S(N)(=O)=O [IX-14, N2-(3-Aminosulfonyl-4-methylphenyl)-N4-(3-cyanomethyl-1H-indol-5-yl)-5-fluoro-2,4-pyrimidinediamine] |
| 7700 | 37.5 | Cc1ccc(Nc2ncc(F)c(Nc3ccc(Cl)c(Cl)c3)n2)cc1S(N)(=O)=O [VI-6, N2-(3-Aminosulfonyl-4-methylphenyl)-N4-(3,4-dichlorophenyl)-5-fluoro-2,4-pyrimidinediamine] |
| 33200 | 210 | Cc1ccc(Nc2ncc(F)c(Nc3ccc(C)c(S(N)(=O)=O)c3)n2)cc1S(N)(=O)=O [VI-114, N2,N4-Bis-(3-aminosulfonyl-4-methylphenyl)-5-fluoro-2,4-pyrimidinediamine] |
| 3650 | 102 | COc1ccc(Nc2nc(Nc3cccc(S(N)(=O)=O)c3)ncc2F)cn1 [VII-6, N2-(3-Aminosulfonylphenyl)-5-fluoro-N4-(2-methoxypyrid-5-yl)-2,4-pyrimidinediamine] |
| 856 | 159 | COc1ccc(Nc2nc(Nc3cccc(S(N)(=O)=O)c3)ncc2F)cc1Cl [VI-107, N2-(3-Aminosulfonylphenyl)-5-fluoro-N4-(4-methoxy-3-chlorophenyl]-2,4-pyrimidinediamine] |
| 1440 | 145 | NS(=O)(=O)c1cccc(Nc2ncc(F)c(Nc3ccc(Cc4ccncc4)cc3)n2)c1 [III-128, N2-(3-Aminosulfonylphenyl)-5-fluoro-N4-[4-(4-pyridylmethyl)phenyl]-2,4-pyrimidinediamine p-Toluenesulfonic Acid Salt] |
| 660 | 30.8 | CN1C(=O)CSc2ccc(Nc3nc(Nc4ccc(S(N)(=O)=O)cc4)ncc3F)cc21 [VII-48, N2-(4-Aminosulfonylphenyl)-5-fluoro-N4-(4-methyl-3-oxo-benz[1,4]thiazin-6-yl)-2,4-pyrimidinediamine] |
| 257 | 44.4 | COc1ccc(Nc2nc(Nc3cccc(S(N)(=O)=O)c3)ncc2Br)cc1Cl [VI-26, N2-(3-aminosulfonylphenyl)-5-bromo-N4-(3-chloro-4-methoxyphenyl)-2,4-pyrimidinediamine] |
| 1390 | 96.5 | COc1ccc(Nc2nc(Nc3cc(Cl)c(C)c(S(N)(=O)=O)c3)ncc2F)cc1Cl [VI-13, N2-(3-Aminosulfonyl-5-chloro-4-methylphenyl)-N4-(3-chloro-4-methoxyphenyl)-5-fluoro-2,4-pyrimidinediamine] |
| 5350 | 246 | COc1ccc(Nc2nc(Nc3ccc(C)c(S(N)(=O)=O)c3)ncc2F)nc1N [VII-9, N2-(3-Aminosulfonyl-4-methylphenyl)-N4-[2-amino-3-methoxypyrid-6-yl]-5-fluoro-2,4-pyrimidinediamine] |
| 1740 | 160 | C#CCOc1ccc(Nc2nc(Nc3ccc(C(C)C)c(S(N)(=O)=O)c3)ncc2F)cc1 [VI-63, N2-[3-Aminosulfonyl-4-(2-propyl)phenyl]-5-fluoro-N4-[4-(prop-2-ynyloxy)phenyl]-2,4-pyrimidinediamine] |
| 964 | 90.6 | C#CCNc1ccc(Nc2nc(Nc3ccc(C)c(S(N)(=O)=O)c3)ncc2F)cc1 [VI-65, N2-(3-Aminosulfonyl-4-methylphenyl)-5-fluoro-N4-[4-(prop-2-ynylamino)phenyl]-2,4-pyrimidinediamine] |
| 1850 | 138 | N#CCc1c[nH]c2ccc(Nc3nc(Nc4cccc(S(N)(=O)=O)c4)ncc3F)cc12 [IX-13, N2-(3-Aminosulfonylphenyl)-N4-(3-cyanomethyl-1H-indol-5-yl)-5-fluoro-2,4-pyrimidinediamine] |
| 880 | 103 | Cc1ccc(Nc2ncc(F)c(Nc3ccc(-c4cnco4)cc3)n2)cc1S(N)(=O)=O [IV-6, N2-(3-Aminosulfonyl-4-methylphenyl)-5-fluoro-N4-[4-(1,3-oxazol-5-yl)phenyl]-2,4-pyrimidinediamine] |
| 2630 | 358 | NS(=O)(=O)c1ccc(Nc2ncc(F)c(NCCc3ccc(-n4ccnc4)cc3)n2)cc1 [III-90, N2-(4-Aminosulfonylphenyl)-5-fluoro-N4-[4-(1-imidazolyl)phenethyl]-2,4-pyrimidinediamine] |
| 1740 | 168 | Cc1ccc(Nc2ncc(F)c(Nc3ccc(CO)cc3)n2)cc1S(N)(=O)=O [VI-52, N2-(3-Aminosulfonyl-4-methylphenyl)-5-fluoro-N4-(4-hydroxymethylphenyl)-2,4-pyrimidinediamine] |
| 1230 | 33 | Cc1ccc(Nc2ncc(F)c(Nc3ccc4c(c3)NC(=O)CS4)n2)cc1S(N)(=O)=O [VII-44, N2-(3-Aminosulphonyl-4-methyl-phenyl)-5-fluoro-N4-(3-oxo-4H-benzo[1,4]thiazin-6-yl)-2,4-pyrimidinediamine] |
| 5360 | 217 | N#CCc1c[nH]c2c(Nc3nc(Nc4cccc(S(N)(=O)=O)c4)ncc3F)cccc12 [IX-15, N2-(3-Aminosulfonylphenyl)-N4-(3-cyanomethyl-1H-indol-7-yl)-5-fluoro-2,4-pyrimidinediamine] |
| 4900 | 321 | NS(=O)(=O)c1cc(Nc2ncc(F)c(Nc3ccc(O)cc3)n2)ccc1F [VI-100, N2-(3-Aminosulfonyl-4-fluorophenyl)-5-fluoro-N4-(4-hydroxyphenyl)-2,4-pyrimidinediamine] |
| 367 | 99 | CC#CCOc1ccc(Nc2nc(Nc3ccc(C)c(S(N)(=O)=O)c3)ncc2F)cc1 [VI-61, N2-(3-Aminosulfonyl-4-methylphenyl)-N4-[4-(but-2-ynyloxy)phenyl]-5-fluoro-2,4-pyrimidinediamine] |
